{
  "source": "patent US10624944B2",
  "about": "“Anti-inflammatory peptides for treating non-alcoholic steatohepatitis (NASH)” (Creative Bio-Peptides Inc., priority 2017, dated 2020)",
  "key": {"[1]": {"tested_on": "high fat diet mouse model of NAFLD", "details": "cited from earlier work"}, "CCR5": {"target": "CCR5 (Homo sapiens, UniProt P51681)", "sequence (P51681 whole entry)": "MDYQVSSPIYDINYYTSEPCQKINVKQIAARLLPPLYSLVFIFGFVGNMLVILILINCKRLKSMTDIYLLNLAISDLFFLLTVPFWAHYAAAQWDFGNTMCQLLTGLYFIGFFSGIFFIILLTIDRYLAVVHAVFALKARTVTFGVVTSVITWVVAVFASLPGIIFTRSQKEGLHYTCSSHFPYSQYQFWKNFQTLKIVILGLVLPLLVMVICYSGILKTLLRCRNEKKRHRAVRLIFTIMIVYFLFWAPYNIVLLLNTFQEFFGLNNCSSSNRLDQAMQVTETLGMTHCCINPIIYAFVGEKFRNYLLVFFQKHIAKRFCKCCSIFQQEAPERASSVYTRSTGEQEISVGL", "details": "30 min pretreatment; CCL4 50 ng/mL for 90 min; FIG. 2; cited from earlier work"}, "TLR4/MyD88 [2]": {"tested_on": "TLR4/MyD88", "details": "iDCs treated at 10^-12 M for 30 min, then LPS 100 ng/ml, analyzed after 48 hrs", "description": "To determine whether all-D-TTNYT (SEQ ID NO:1) blocks maturation of antigen-presenting dendritic cells, human PBMC's were isolated from peripheral blood by Ficoll-Paque centrifugation and then monocytes were isolated by negative selection using immunobeads (Miltenyi). Human monocyte derived immature dendritic cells (iDCs) were then generated by treating monocytes with GM-CSF/IL4.\nAfter 30 min LPS (100 ng/ml) was added to the cells and cells were analyzed after 48 hrs. for surface maturation markers using fluorescent labeled antibodies by flow cytometry."}, "[3]": {"tested_on": "human monocyte derived immature dendritic cells (iDCs)", "description": "In liver, TLR4 is expressed by all parenchymal and non-parenchymal cell types, and contributes to tissue damage caused by a variety of etiologies. TLR4 signaling occurs in hepatic stellate cells (HSCs), the major fibrogenic cell type in injured liver, and mediates an inflammatory phenotype leading to fibrogenesis."}, "[4]": {"tested_on": "chemokines, chemokine receptors and cytokines", "details": "Rat, oral gavage 0.05-1 mg/kg for 7 days, nerve injured", "description": "The specific experimental details are provided in Padi, 2012 (7)."}, "CCR2 [5]": {"target": "T1, CCR2 (Homo sapiens, UniProt P41597)", "T1 sequence (P41597 whole entry)": "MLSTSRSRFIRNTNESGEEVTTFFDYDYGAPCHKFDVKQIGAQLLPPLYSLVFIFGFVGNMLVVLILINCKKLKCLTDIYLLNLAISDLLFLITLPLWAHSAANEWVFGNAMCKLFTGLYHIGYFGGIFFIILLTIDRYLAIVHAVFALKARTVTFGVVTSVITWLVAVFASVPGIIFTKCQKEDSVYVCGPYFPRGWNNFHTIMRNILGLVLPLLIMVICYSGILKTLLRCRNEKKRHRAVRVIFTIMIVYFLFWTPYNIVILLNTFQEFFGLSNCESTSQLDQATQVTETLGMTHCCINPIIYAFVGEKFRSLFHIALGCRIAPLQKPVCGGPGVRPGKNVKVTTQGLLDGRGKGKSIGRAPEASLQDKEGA", "details": "30 min pretreatment; CCL2 50 ng/mL for 90 min; FIG. 2; cited from earlier work"}, "CCR2 [6]": {"target": "T1, CCR2", "test": "CCL2 (MCP-1)-elicited chemotaxis of human monocytes", "type": "cell-based", "design": "endogenous in cells; host or cells: human monocytes", "details": "FIG. 3; methods similar to FIG. 2; low concentration", "description": "Monocytes were treated with the indicated doses of RAP-103 for 30 min before chemotaxis against human CCL2 (MCP-1) or CCL4 (MIP-1β) (both 50 ng/mL) for 90 min. Data (chemotactic index) are presented as mean±SEM. The chemotactic index for MCP-1 without RAP-103 was 2.5-3.5 times over control, whereas for MIP-1 ? without RAP-103, it was approximately 2 times over control. Data are presented as mean±SEM. (*P<0.05, **P<0.01 vs RAP-103 untreated). Data are from [Padi, 2012, FIG. 1]. […] Dual-chemokine CCR2/CCR5 receptor antagonists may have added therapeutic value by blocking multiple inflammatory pathways.\nMethods are similar to those in FIG. 2."}, "[7]": {"tested_on": "inflammatory cytokine levels", "details": "Hu; cited from earlier work"}, "TLR4/MyD88 [8]": {"tested_on": "TLR4/MyD88", "details": "Rat; cited from earlier work"}, "response to bradykinin": {"tested_on": "response to bradykinin", "details": "amounts up to 50,000 times the standard challenge of bradykinin; cited from earlier work"}, "[9]": {"details": "listed as all-D-pentapeptide TTNYT"}},
  "note": "Where two headings read alike, the source gives them in different places. Square brackets hold non-standard residues; d marks the D form. Ends that are not written are not given here.",
  "data": [
    {"substance": "Maraviroc", "values": [
      {"measurement": "CCL5/RANTES expression", "setting": "[1]", "result": "significantly lower"},
      {"measurement": "hepatic steatosis", "setting": "[1]", "result": "ameliorated hepatic steatosis"}
    ]},
    {"substance": "all-D-TTNYT", "values": [
      {"measurement": "CCL4 (MIP-1β) human monocyte chemotaxis (chemotactic index)", "setting": "CCR5", "result": "dual-antagonist"},
      {"measurement": "expression of maturation markers CD86, HLA-DR, CD58 and ICAM1 induced by TLR4/MyD88 activation (LPS)", "setting": "TLR4/MyD88 [2]", "result": "reduces expression of all the maturation markers"},
      {"measurement": "DC maturation of the four markers caused by LL37", "setting": "[3]", "result": "no effect"},
      {"measurement": "Change of CCR2", "setting": "[4]", "result": "decrease"},
      {"measurement": "Change of CCR5", "setting": "[4]", "result": "decrease"},
      {"measurement": "Change of IL-6", "setting": "[4]", "result": "decrease"},
      {"measurement": "Change of IL-β", "setting": "[4]", "result": "decrease"},
      {"measurement": "Change of MCP-1 (CCL2)", "setting": "[4]", "result": "decrease"},
      {"measurement": "Change of MIP-1α (CCL3)", "setting": "[4]", "result": "decrease"},
      {"measurement": "Change of TNFα", "setting": "[4]", "result": "decrease"},
      {"measurement": "Change of CCR2", "setting": "[4]; [9]", "result": "lowering expression"},
      {"measurement": "Change of CCR5", "setting": "[4]; [9]", "result": "lowering expression"},
      {"measurement": "Change of IL-β", "setting": "[4]; [9]", "result": "lowering expression"},
      {"measurement": "Change of MCP-1 (CCL2)", "setting": "[4]; [9]", "result": "lowering expression"},
      {"measurement": "Change of MIP-1α (CCL3)", "setting": "[4]; [9]", "result": "lowering expression"},
      {"measurement": "Change of TNFα", "setting": "[4]; [9]", "result": "lowering expression"},
      {"measurement": "CCL2 (MCP-1) human monocyte chemotaxis (chemotactic index)", "setting": "CCR2 [5]", "result": "dual-antagonist"}
    ]},
    {"substance": "all-D-SSTYR ([dS][dS][dT][dY][dR]) [all-D-amino acid pentapeptide SSTYR]", "values": [
      {"measurement": "CCL2 human monocyte chemotaxis", "setting": "CCR2 [6]", "result": "antagonists"}
    ]},
    {"substance": "Dala1-peptide T-amide [DAPTA]", "values": [
      {"measurement": "Change of ICAM-1", "setting": "[7]", "result": "decrease"},
      {"measurement": "Change of IL-1", "setting": "[7]", "result": "decrease"},
      {"measurement": "Change of IL-6", "setting": "[7]", "result": "decrease"},
      {"measurement": "Change of IL-8", "setting": "[7]", "result": "decrease"},
      {"measurement": "Change of IL-23", "setting": "[7]", "result": "decrease"},
      {"measurement": "Change of NFkB", "setting": "[7]", "result": "decrease"},
      {"measurement": "Change of STAT3", "setting": "[7]", "result": "decrease"},
      {"measurement": "Change of TNFα", "setting": "[7]", "result": "decrease"},
      {"measurement": "Change of TLR4/MyD88", "setting": "TLR4/MyD88 [8]", "result": "decrease"}
    ]},
    {"substance": "all-D-NTSYR ([dN][dT][dS][dY][dR]) [all-D-amino acid pentapeptide NTSYR]", "values": [
      {"measurement": "CCL2 human monocyte chemotaxis", "setting": "CCR2 [6]", "result": "antagonists"}
    ]},
    {"substance": "all-D-TTSYT ([dT][dT][dS][dY][dT]) [all-D-amino acid pentapeptide TTSYT]", "values": [
      {"measurement": "CCL2 human monocyte chemotaxis", "setting": "CCR2 [6]", "result": "antagonists"}
    ]},
    {"substance": "all-D-bradykinin", "values": [
      {"measurement": "inhibition of the response to bradykinin or bradykinin-like effect", "setting": "response to bradykinin", "result": "neither any inhibition of the response to bradykinin, or any bradykinin-like effect"}
    ]}
  ]
}
